Assay results: PubChem BioAssay AID1949 (Southern Research Institute, 2009)
In brackets after ≈: the same amount, converted by molar mass. Inconclusive results are not listed. Activity calls are given as the source filed them. No rule for the calls is given here.

System: M. tuberculosis H37Rv growth inhibition
Assay: Confirmatory growth inhibition assay against Mycobacterium tuberculosis H37Rv, potency (AID 1949);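 also: bacteria grown 7 days with compound before Alamar blue readout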

COc1cccc(NC(=S)NC(=O)CC(C)(C)C)c1
IC50: 13.4 µg/mL (≈ 47.9 µM)

O=C(CCNc1ccc(F)c(Cl)c1)c1cccs1
IC50: 4.3 µg/mL (≈ 15.2 µM)

Cc1cc(C)nc(Nc2ccc(N3CCCC3)cc2)n1
IC50: 9.69 µg/mL (≈ 36.1 µM)

COc1ccc(OC(=O)c2sc3ccccc3c2Cl)cc1
IC50: > 50 µg/mL (inactive)

O=C(Oc1cccc2cccnc12)C(Cc1ccccc1)N1C(=O)C2C3CCC(C3)C2C1=O (stereo not drawn)
IC50: 2.76 µg/mL (≈ 6.27 µM)

C#Cc1cccc(NC(=O)COc2ccc(Cl)cc2)c1
IC50: 8.18 µg/mL (≈ 28.6 µM)

COc1ccc(-c2nc(NC(=O)c3ccccc3)n[nH]2)cc1OC
IC50: 1.5 µg/mL (≈ 4.62 µM)

CCOc1ccc(Nc2nc(N)c(C(=O)C(C)(C)C)s2)cc1
IC50: 5.96 µg/mL (≈ 18.7 µM)

Oc1ccccc1Nc1nc(NCc2ccco2)c2ccccc2n1
IC50: 5.36 µg/mL (≈ 16.1 µM)

COC(=O)COc1ccc2cc(-c3ccc(OC)c(OC)c3)c(=O)oc2c1
IC50: 1.03 µg/mL (≈ 2.78 µM)

CC(C)(C)Nc1nc(N2CCCC2)nc(N2CCCC2)n1
IC50: > 50 µg/mL (inactive)

O=C1c2cccc3cccc(c23)C(=O)N1CC1CCN(CC(O)COc2ccc3ccccc3c2)CC1 (stereo not drawn)
IC50: 0.84 µg/mL (≈ 1.7 µM)

N#C/C(=C\C=C\c1ccco1)c1nc2c(s1)CCCC2
IC50: 9.33 µg/mL (≈ 33 µM)

O=C(NCCC1=CCCCC1)C12CC3CC(CC(C3)C1)C2
IC50: 11.2 µg/mL (≈ 39 µM)

CC(Oc1ccc(C(=O)NC2CCCCC2)cc1)C(=O)OCc1ccccc1Cl (stereo not drawn)
IC50: 0.95 µg/mL (≈ 2.28 µM)

O=C(Oc1cccc2cccnc12)c1ccc(S(=O)(=O)N2CCCCC2)cc1
IC50: 1.48 µg/mL (≈ 3.73 µM)

CC(C)(C)NC(=O)c1cc2cc([N+](=O)[O-])ccc2oc1=O
IC50: 1.48 µg/mL (≈ 5.1 µM)

Cc1ccc(Cl)cc1N1CCN(C(=O)CC23CC4CC(CC(C4)C2)C3)CC1
IC50: 4.43 µg/mL (≈ 11.4 µM)

Oc1ccc(/C=C/c2nc(-c3ccccc3O)n(-c3ccccc3)n2)cc1
IC50: 5.63 µg/mL (≈ 15.8 µM)

O=C(Nc1cccc(Br)c1)c1ccc(-c2ccc(Cl)cc2)o1
IC50: 1.39 µg/mL (≈ 3.69 µM)

Clc1ccc(COc2ccc3ccccc3c2CNCc2cccnc2)c(Cl)c1
IC50: 2.7 µg/mL (≈ 6.38 µM)

CC(C)(C)n1cnc2cc(NC(=O)c3ccc(Cl)cc3)ccc21
IC50: 0.99 µg/mL (≈ 3.02 µM)

COc1ccc(CCNc2nc(N3CCCC3)nc(N3CCCC3)n2)cc1OC
IC50: 5.35 µg/mL (≈ 13.4 µM)

CC1CCc2nc(NC(=S)NCc3ccco3)sc2C1 (stereo not drawn)
IC50: 3.09 µg/mL (≈ 10.1 µM)

CC(=O)c1c(O)n(C)c(=S)n(C)c1=O
IC50: > 50 µg/mL (inactive)

CCOC(=O)C1CCN(C2=NC(=O)/C(=C\c3ccc(Cl)cc3Cl)S2)CC1
IC50: 0.41 µg/mL (≈ 0.992 µM)

CCOC(=O)COc1ccc2c(C)c(CC(=O)OC)c(=O)oc2c1
IC50: 35 µg/mL (≈ 105 µM)

CC(C)(C)OC(=O)COc1cc2oc(=O)cc(-c3ccccc3)c2cc1Cl
IC50: > 50 µg/mL (inactive)

O=C1C(=O)N(Cc2ccccc2Cl)c2ccc(Cl)cc21
IC50: 9.36 µg/mL (≈ 30.6 µM)

CCOC(=O)COc1ccc(C(=O)Nc2cccc(Cl)c2C)cc1
IC50: < 0.1 µg/mL

COc1cccc2c(C)nc(Nc3nc4ccccc4c(=O)[nH]3)nc12
IC50: > 50 µg/mL (inactive)

CCc1nccn1S(=O)(=O)c1ccccc1[N+](=O)[O-]
IC50: > 50 µg/mL (inactive)

O=C(NC1C2CC3CC(C2)CC1C3)c1ccc(-c2ccc(Cl)cc2)o1 (stereo not drawn)
IC50: 10.9 µg/mL (≈ 30.8 µM)

CCn1cc(C(=O)O)c(=O)c2cc(F)c(N3CCN(C(=O)Nc4ccccc4)CC3)cc21
IC50: > 50 µg/mL (inactive)

CC1CCN(c2ccc(NC(=O)c3ccc([N+](=O)[O-])o3)cc2)CC1
IC50: 0.31 µg/mL (≈ 0.941 µM)

CCN(CC)c1ccc(NC(=O)c2ccc([N+](=O)[O-])o2)c(C)c1
IC50: 0.52 µg/mL (≈ 1.64 µM)

Cc1ccc(C(=O)Nc2ccc([N+](=O)[O-])cc2)s1
IC50: < 0.1 µg/mL

CCOc1cccc(N2C(=O)CC(S/C(N)=N/N=C(\C)c3ccc(Cl)s3)C2=O)c1 (stereo not drawn)
IC50: 2.62 µg/mL (≈ 5.81 µM)

Cc1ccc(C)c(-c2nn(-c3cc(N4CCN(C)CC4)ccc3[N+](=O)[O-])c(=O)c3ccccc23)c1
IC50: 1.76 µg/mL (≈ 3.75 µM)

O=C(Nc1ccc(Cl)cc1C(F)(F)F)c1ccc([N+](=O)[O-])o1
IC50: 2.42 µg/mL (≈ 7.23 µM)

Cc1ccc(OCC(=O)NC23CC4CC(CC(C4)C2)C3)cc1C
IC50: 3.77 µg/mL (≈ 12 µM)

CCC(Sc1nc2ccccc2o1)C(=O)Nc1nnc(C)s1 (stereo not drawn)
IC50: 0.75 µg/mL (≈ 2.24 µM)

COc1ccc(-c2c(C)[nH]n3c(=O)c(Cc4ccccc4)c(C)nc23)cc1
IC50: 1.28 µg/mL (≈ 3.56 µM)

CCc1nc2ccccc2n1CC(O)COc1ccc(Br)cc1 (stereo not drawn)
IC50: 4.11 µg/mL (≈ 11 µM)

CCCCNCCCCOc1ccc2ccccc2c1Br
IC50: 1.63 µg/mL (≈ 4.65 µM)

CC(C)(C)c1ccc(OCCNC(=O)c2cccc(Br)c2)cc1
IC50: 5.19 µg/mL (≈ 13.8 µM)

Nc1ncnc2c1[nH]c(=S)n2CCOc1cccc2ccccc12
IC50: 10.9 µg/mL (≈ 32.5 µM)

CCC(=O)c1ccc(OCC(O)CN2CCN(c3ccc(C)cc3C)CC2)cc1 (stereo not drawn)
IC50: > 50 µg/mL (inactive)

CC1CCc2c(sc3ncnc(Nc4ccc(OCc5ccccc5)cc4)c23)C1 (stereo not drawn)
IC50: > 50 µg/mL (inactive)

COC(=O)COc1ccc(-c2ccccc2)cc1
IC50: 0.22 µg/mL (≈ 0.908 µM)

COC(=O)c1ccc(OC(=O)c2ccc(C)c([N+](=O)[O-])c2)cc1
IC50: > 50 µg/mL (inactive)

Cc1cccc(-c2nnc(SCC(=O)NCCc3ccccc3)o2)c1
IC50: 0.25 µg/mL (≈ 0.707 µM)

O=Cc1cccc(OCC(=O)Nc2cccc(Cl)c2)c1
IC50: 45 µg/mL (≈ 155 µM)

O=[N+]([O-])c1nn(-c2ccccc2)[n+]([O-])c1N1CCCC1
IC50: 11.9 µg/mL (≈ 43.1 µM)

O=C(Cc1ccc(Cl)cc1)Nc1nc2ccc(Cl)cc2s1
IC50: 3.22 µg/mL (≈ 9.55 µM)

COc1ccccc1NC(=O)C1=C(C)NC(SCC(=O)Nc2ccccc2[N+](=O)[O-])=C(C#N)C1c1ccccc1F (stereo not drawn)
IC50: 12 µg/mL (≈ 21 µM)

O=C(/C=C/c1cc([N+](=O)[O-])ccc1O)c1ccc(Cl)cc1
IC50: 1.24 µg/mL (≈ 4.08 µM)

O=C(Nc1ccc2c(c1)CCC2)c1ccc(Br)s1
IC50: 1.45 µg/mL (≈ 4.5 µM)
